Values quoted from earlier work, collected in patent publication US6498171B2, “Hydroxyomeprazole compositions” (Sepracor Inc., priority 1998, dated 2002).

Legend:
isolated gastric glands = conditions: read-out: IC50, inhibitory effect on aminopyrine uptake
[1] = humans
[2] = poor metabolizers vs extensive metabolizers, serum

| IC50 (isolated gastric glands) | Cmax is at (time) [1] | serum half-life ([1]; highly variable) | 8-hour AUC, poor metabolizers relative to extensive metabolizers [2] | SMILES |
| --- | --- | --- | --- | --- |
| 33 µM |  |  |  | COc1ccc2[nH]c([S+]([O-])Cc3ncc(CO)c(OC)c3C)nc2c1 (racemic) [racemic hydroxyomeprazole] |
| 0.48 µM | 0.5 to 3.5 h | 30 to 60 min |  | COc1ccc2[nH]c([S+]([O-])Cc3ncc(C)c(OC)c3C)nc2c1 (racemic) [racemic omeprazole, Omeprazole] |
|  |  |  | more than 10 times higher | COc1ccc2nc(S(=O)(=O)Cc3ncc(C)c(OC)c3C)[nH]c2c1 [omeprazole sulfone] |
